The target of one assay is T1, FGF-2 (Homo sapiens, UniProt P09038).
T1 construct: purchased Peprotech 100-18C
Briefly: FGF-2 induced sprouting of HUVEC, spheroid-based cellular angiogenesis assay. The class given is cell-based. The conditions noted are these: FGF-2 25 ng/mL preincubated with compound, 24 h. The protocol:
(§1) Aim of this in vitro method is to assess compounds effects on FGF-2, FGF-1, or VEGF-A induced sprouting of human umbilical vein endothelial cells (HUVEC) in the spheroid-based cellular angiogenesis assay. Before adding the growth factors to the cells, they were preincubated with the compound. Sunitinib was tested as a control (without preincubation).
(§2) IC50 values determined for the tested compounds are expressed in microM [μM] and the values for the inhibition of FGF-1, FGF2 and VEGF-A induced growth (sprouting) are listed after each compound in the examples after chemical characterization.
(§3) Sprouting test was performed on the compounds dissolved in DMSO to reach 100-fold concentrated stock solutions and dissolved in culture media. Sunitinib as reference compound was provided by ProQinase GmbH. Growth factors were purchased from rhFGF-basic (FGF-2), Peprotech, New Jersey, USA, #100-18C, Lot #0415571; rhFGF-acidic (FGF-1), Peprotech, New Jersey, USA, #100-17A, Lot #031207; hVEGF-A165 (ProQinase GmbH, Freiburg, Germany; 05.02.2010) were used for stimulation of HUVEC cells growth.
(§4) Test system: Endothelial cells from human umbilical vein (HUVEC) from pooled donors were stored frozen with 70% medium, 20% FCS, 10% DMSO at about 1×10^6 cells/ampoule. HUVEC cells, primary human umbilical vein endothelial cells (PromoCell, Heidelberg, Germany), were used after passage 3 to 4. Morphology of the cells are adherent, cobblestone-like growing as monolayer and were cultured in endothelial cell growth and basal medium (ECGM/ECBM, PromoCell). The subculture was split 1:3; every 3-5 days, seed out at ca. 1×10^4 cells/cm^2 and incubated at 37° C. with 5% CO2 with a doubling time 24-48 hours
(§5) Dilution of test compounds: 100× concentrated solutions (concerning to the final assay concentrations) of each test compound were prepared with the appropriate solvent (in DMSO or in water). These 100×compound solutions were further diluted in endothelial cell growth and basal medium (ECBM) 1:7.5 to get a 13.33× concentrated solution. 75 μl of the 13.33×solution was subsequently mixed with 25 μl of 40× concentrated stimulus (solved in ECBM), resulting in a 10×concentrated stimulus/compound mixture. This mixture (100 μl) was incubated for 30 min at 37° C. and then added to 900 μl gel, containing the HUVEC spheroids (resulting in the final assay concentration).
(§6) Test method: the experiments were pursued in modification of the originally published protocol (Korff and Augustin: J Cell Sci 112: 3249-58, 1999). In brief, spheroids were prepared as described (Korff and Augustin: J Cell Biol 143: 1341-52, 1998) by pipetting 400 HUVEC in a hanging drop on plastic dishes to allow overnight spheroid aggregation. 50 HUVEC spheroids were then seeded in 0.9 ml of a collagen gel and pipetted into individual wells of a 24 well plate to allow polymerization. The test compounds were preincubated with the growth factors (FGF-1, FGF-2 or VEGF-A final concentration 25 ng/mL) in a 10-fold concentrated solution and subsequently, 100 μl of this solution was added on top of the polymerized gel. All compounds were diluted in solvent (DMSO or water) as 100×stocks first (which means 100×stocks of each final assay concentration were prepared in solvent). Subsequently, these stocks were further diluted in medium (resulting in the 13.33×stocks of each final assay concentration) with final concentrations tested: 100, 50, 25, 12.5, 6.25, 3.13 and 1.56×10^−6 M). Plates were incubated at 37° C. for 24 hours and fixed by adding 4% PFA (Roth, Karlsruhe, Germany).
(§7) Quantification of growth factor inhibition: sprouting intensity of HUVEC spheroids treated with the growth factor and the inhibitors were quantitated by an image analysis system determining the cumulative sprout length per spheroid (CSL).

The subject of assay [1] is Human neutrophils. Kind of assay: Neutrophil adhesion under static conditions. The class given is cell-based. The following applies: fMLP-stimulated adhesion to fibrinogen; method: 40 μM and 80 μM, concentration of the value not stated. As to the method: Human neutrophils obtained from buffy coats of healthy donors were suspended at 3×10^6/ml in adhesion buffer (PBS containing 1 mM CaCl2)/MgCl2 and 10% FCS, pH 7.2). Neutrophils were preincubated for 30 min at 37° C. with 40 μM and 80 μM of the compounds.
Adhesion assays were performed on 18-well glass slides coated for 18 h at 4° C. with human fibrinogen (20 μg/well in endotoxin-free PBS); 20 μl of cell suspension were added to each well and stimulated for 1 min at 37° C. with 5 μl of fMLP 1 nM final concentration. After washing, adherent cells were fixed in glutaraldehyde 1.5% in PBS and counted by computer-assisted enumeration. Statistical analysis was performed by calculating mean and standard deviation (SD); significance was calculated by unpaired t-test. All statistical analyses were performed using GraphPad Prism 6 (GraphPad Software).

In assay [2] the test system is Human neutrophils. Briefly: Inhibition of ROS production in human neutrophils (isoluminol chemiluminescence). Type of assay: cell-based. The following applies: Homo sapiens, Neutrophil, fMLP+TNF-α stimulated PMN. The source says: NADPH oxidase, located in the plasma membrane and in the membranes of specific granules, produces superoxide anions from which other ROS, such as hydrogen peroxide, singlet oxygen, hypochlorite, and active hydroxyl radicals. ROS are released into the surrounding medium or into a membrane-enclosed subcellular organelle. One quick and sensitive method for measuring the generation of these metabolites is chemiluminescence (CL). Isoluminol amplified CL technique, is very sensitive and widely used to study respiratory burst (mainly extracellular production of ROS) induced in neutrophils.
Human neutrophils were isolated from buffy coats which obtained from healthy donors. The isolated neutrophils (3×10^6/ml) were suspended in Hanks' Balanced Salt Solution (HBSS) with Calcium and Magnesium. Neutrophils were pre-incubated with the compounds at different concentrations (0.1, 0.3, 1, 3 and 10 μM) for 30 min at 37° C. The black 96-well cell culture plates were coated with human fibrinogen (0.25 mg/ml in PBS), and incubated overnight at 4° C. or 2 hr at 37° C. Then the plates were washed with endotoxin-free PBS. The neutrophils were incubated (priming) with TNF-α (20 ng/ml) for 10 minutes at 37° C. Thereupon the 75 μl of cell suspension and 75 μl (Isoluminol+HRP solution) were added to each well. The chemiluminescence was recorded (every 25 sec for 250 sec) after fMLP (1 μM) activation using a Multilabel Reader victor3 (Perkin Elmer, USA). Background values, defined as the mean chemiluminescent values of isoluminol diluted in HBSS, were subtracted from all readings (CPS, count per second). The assays were done in duplicate or triplicate.

For another assay, the target named is T2, VEGFR-2 (Homo sapiens, UniProt P35968).
T2 construct: endogenous in cells; host or cells: primary HUVEC
Kind of assay: VEGF-165 induced phosphorylation of VEGF-Receptor on HUVEC. Type of assay: cell-based. The conditions noted are these: HUVEC preincubated 60 min, VEGF165 25 ng/mL 2 min; read-out: VEGFR-Phosphorylation inhibition IC50. As to the method: Cell culture: Primary human umbilical vein endothelial cells (HUVECs) were routinely cultured in 0.1% gelatin pre-coated flasks or dishes, up to passage 6. […]
Rabbit primary antibodies for VEGFR-2, p-Tyr1175 were acquired from Cell Signaling Technology (Leiden, The Netherlands). Phospho-VEGFR-2 (Tyr1175) Sandwich ELISA Kit was from Cell Signaling Technology.
[…] Western blot analysis was performed using anti-phospho-VEGFR-2 antibody and total VEGFR-2 was used as a loading control after membrane stripping.
Inhibition of VEGFR-2-phosphorylation results are expressed as IC50 in microM [μM] versus VEGF-treated HUVECs control without inhibitory compound.

A further assay has as its target T3, FGF-1 (Homo sapiens, UniProt P05230).
T3 construct: purchased Peprotech 100-17A
Kind of assay: FGF-1 induced sprouting of HUVEC, spheroid-based cellular angiogenesis assay. The class given is cell-based. The following applies: FGF-1 25 ng/mL preincubated with compound, 24 h. The protocol:
as §1, §2, §3, §4, §5, §6, §7

Assay [3] deals with STZ-induced diabetes model. Kind of assay: STZ-induced diabetic nephropathy, kidney disease and retinopathy model (28 days treatment).
Protocol: A total of 70 female CD-1 mice aged 5-7 weeks weighing approximately 25-30 g were used for the study. These were purchased from Charles River, UK and had 7 days acclimatization period. Animals were housed in IVC cages (up to 5 per cage) with individual mice identified by tail mark. All animals were allowed free access to a standard certified commercial diet and sanitised water during the study. The holding room was maintained under standard conditions: 18-24° C., 55-70% humidity and a 12 h light/dark cycle.
Mice were starved for 6 hours prior to injection. One week after completion of induction glucose levels were monitored and mice with levels less than 15 mml/L (280 mg/gL) were removed from the study as they had not developed the ideal severity of diabetes. Glucose levels were be monitored weekly and 5 weeks after STZ induction biochemical assessment of renal injury was carried out by measuring urine albumin and creatinine levels and confirming they were within the desired range. After successful completion of this stage animals were assigned to treatment groups.
Treatment continued for 4 weeks (28 days) with weekly measurement of blood glucose and urine albumin/creatinine. The study schedule is detailed below looking at weekly (week 5 to 9) blood glucose levels, urine albumin creatinie ratios, and terminal (week 9) blood chemistry and cytokines, kidney histology and eye-retinal leakage.
Urine Albumin: Creatinine (ALB: CRE): Urine was collected weekly and pooled for each treatment group.
ELISAs: At the end of the treatment period blood was collected and processed to serum. Serum levels of CRP, TGF-β, IL-6 and TNF-α were quantified using commercially available ELISA kits, results are shown in Table 56.
Setting [4] is: day 28 of treatment (week 9), 15 mg/kg IV, Captopril 50 mg/kg PO.
[5] abbreviates: day 28 of treatment (week 9), serum, 15 mg/kg IV, Captopril 50 mg/kg PO.

Where only a bound is given, the exact number is not on record here.

T1 sequence (P09038 134-288): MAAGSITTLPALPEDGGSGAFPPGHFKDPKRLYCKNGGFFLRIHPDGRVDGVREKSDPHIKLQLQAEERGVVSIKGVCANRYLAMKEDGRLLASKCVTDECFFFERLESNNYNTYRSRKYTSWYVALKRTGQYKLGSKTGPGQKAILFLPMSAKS
T3 sequence (P05230 whole entry): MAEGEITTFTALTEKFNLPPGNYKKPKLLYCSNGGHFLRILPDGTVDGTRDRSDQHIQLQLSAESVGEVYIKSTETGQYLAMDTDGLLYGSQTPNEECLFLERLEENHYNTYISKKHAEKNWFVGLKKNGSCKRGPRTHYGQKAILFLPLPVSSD
T2 sequence (P35968 20-1356): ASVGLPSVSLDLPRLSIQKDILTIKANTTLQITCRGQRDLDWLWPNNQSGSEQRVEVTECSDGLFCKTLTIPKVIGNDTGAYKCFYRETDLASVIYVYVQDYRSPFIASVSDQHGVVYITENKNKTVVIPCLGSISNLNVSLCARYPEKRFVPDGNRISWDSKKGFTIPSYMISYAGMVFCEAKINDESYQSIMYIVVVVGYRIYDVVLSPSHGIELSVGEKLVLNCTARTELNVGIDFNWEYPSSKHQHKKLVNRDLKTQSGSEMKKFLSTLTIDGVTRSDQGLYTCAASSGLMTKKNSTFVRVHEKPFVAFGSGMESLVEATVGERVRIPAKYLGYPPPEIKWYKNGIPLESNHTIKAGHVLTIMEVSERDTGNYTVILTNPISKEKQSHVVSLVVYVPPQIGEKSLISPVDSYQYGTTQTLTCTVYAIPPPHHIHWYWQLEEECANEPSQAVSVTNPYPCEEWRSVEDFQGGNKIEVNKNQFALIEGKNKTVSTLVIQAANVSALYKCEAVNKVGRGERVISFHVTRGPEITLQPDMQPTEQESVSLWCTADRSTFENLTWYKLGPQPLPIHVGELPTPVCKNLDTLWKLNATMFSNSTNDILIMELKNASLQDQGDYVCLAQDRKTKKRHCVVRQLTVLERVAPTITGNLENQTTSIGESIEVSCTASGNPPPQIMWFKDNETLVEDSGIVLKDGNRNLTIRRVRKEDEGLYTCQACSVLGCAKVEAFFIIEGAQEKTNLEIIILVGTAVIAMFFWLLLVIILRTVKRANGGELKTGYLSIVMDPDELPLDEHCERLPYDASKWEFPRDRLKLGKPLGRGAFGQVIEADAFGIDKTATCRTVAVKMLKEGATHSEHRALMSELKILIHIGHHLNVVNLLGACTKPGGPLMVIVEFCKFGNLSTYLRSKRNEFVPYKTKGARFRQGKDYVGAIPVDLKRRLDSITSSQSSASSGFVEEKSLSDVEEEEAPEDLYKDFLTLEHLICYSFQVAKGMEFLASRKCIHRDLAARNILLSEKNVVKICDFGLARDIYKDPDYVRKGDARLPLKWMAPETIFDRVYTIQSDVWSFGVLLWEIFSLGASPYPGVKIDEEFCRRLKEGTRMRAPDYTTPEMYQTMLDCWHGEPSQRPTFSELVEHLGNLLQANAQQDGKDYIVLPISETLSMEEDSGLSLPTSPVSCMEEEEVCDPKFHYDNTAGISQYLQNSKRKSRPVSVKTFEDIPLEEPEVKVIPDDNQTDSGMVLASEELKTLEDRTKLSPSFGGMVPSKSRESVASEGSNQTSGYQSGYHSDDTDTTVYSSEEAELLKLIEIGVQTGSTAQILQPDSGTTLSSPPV

As for `O=C(O)c1cc(O)cc(C(=O)Nc2ccccc2S(=O)(=O)O)c1O` [IIa-001c, 2,5-dihydroxy-3-(2-sulfophenylaminocarbonyl)benzoic acid], at FGF-2, the concentration for half-maximal inhibition (IC50) worked out at 71 µM. The compound also returned a Neutrophil adhesion inhibition in the assay with Human neutrophils [1] of 43.53%. In addition, 0.3 µM produced 72.6% inhibition in the assay on Human neutrophils [2].

`CCOC(=O)c1cc(O)c(CN(Cc2cc(O)c(C(=O)OCC)cc2O)Cc2cc(O)c(C(=O)OCC)cc2O)cc1O` [IIIc-061a-E3]: the Neutrophil adhesion inhibition in the assay on Human neutrophils [1] stood at 10.4%. Also, the IC50 at VEGFR-2 amounted to 0.34 µM.

In the case of `O=C(O)c1ccc(NC(=O)c2cc(O)c(C(=O)O)cc2O)cc1` [Ia-003a, 4-(4-carboxyphenyl-aminocarbonyl)-2,5-dihydroxybenzoic acid], the concentration for half-maximal inhibition (IC50) at FGF-1 is 12 µM; on FGF-2 it was 34 µM; in the assay with Human neutrophils [2] it was 0.414 µM. This compound also came in with a Neutrophil adhesion inhibition with Human neutrophils [1] of 39.1%. This compound had an inhibition at 0.3 µM with Human neutrophils [2] of 44.4%.

As for `O=C(O)c1cccc(NC(=O)c2cc(O)cc(C(=O)O)c2O)c1` [IIa-002a, 3-(3-carboxyphenylaminocarbonyl)-2,5-dihydroxybenzoic acid], the IC50 on FGF-1 was 19 µM; on FGF-2, 131 µM; in the assay with Human neutrophils [2], 0.299 µM. Further, the Neutrophil adhesion inhibition in the assay with Human neutrophils [1] is on record as 17.39%. Also, in the assay with Human neutrophils [2], the inhibition at 0.3 µM was 43.3%.

Consider `O=C(O)c1cc(O)c(C(=O)Nc2ccc(S(=O)(=O)O)cc2)cc1O` [Ia-003c, 2,5-dihydroxy-4-(4-sulfophenylaminocarbonyl)benzoic acid], for which the concentration for half-maximal inhibition (IC50) at FGF-1 turned out to be 35 µM; at VEGFR-2, 0.4 µM.

On to `CCOC(=O)Cc1ccccc1NC(=O)c1cc(O)cc(C(=O)OCC)c1O` [IIa-034a-E2, ethyl 3-(2-(ethoxycarbonylmethyl)phenylaminocarbonyl)-2,5-dihydroxybenzoate], for which, on FGF-2, the IC50 worked out at 164 µM. In the assay on Human neutrophils [1], the Neutrophil adhesion inhibition was 11.86%. The compound also gave an inhibition at 0.3 µM in the assay with Human neutrophils [2] of 68.7%.

`CCOC(=O)Cc1cc(O)c(C(=O)Nc2cc(NC(=O)c3cc(O)c(CC(=O)OCC)cc3O)cc(C(=O)OC)c2)cc1O` [IIIb-010a-E3, methyl 3,5-bis(4-(ethoxycarbonylmethyl)-2,5-dihydroxybenzamido)benzoate] had a Neutrophil adhesion inhibition in the assay on Human neutrophils [1] of 0%. Besides, the concentration for half-maximal inhibition (IC50) on VEGFR-2 turned out to be 0.65 µM.

Take `C[C@H](CS)C(=O)N1CCC[C@H]1C(=O)O` [Captopril, reference compound]: in assay [3] (28 days of treatment, vs vehicle induced controls), the “Serum CRP” value is on record as “significantly reduced”. For the same compound, in assay [3] (day 0, 15 mg/kg IV, Captopril 50 mg/kg PO), the “Mean day 0 blood glucose Concentration (mmol/L) (SD)” value is 23.7 (6.9) mmol/L. Further, in assay [3] (day 28, 15 mg/kg IV, Captopril 50 mg/kg PO), the “Mean day 28 blood glucose Concentration (mmol/L) (SD)” value is reported as 32.2 (2.3) mmol/L. Also, in assay [3] (setting [4]), the “Blood BUN” value came out at 28.5 ± 7.6; the “Disease Score (kidney, H&E)” value was 6 ± 1; the “Eye area (retinal flatmount area covered by vasculature)” value is on record as 11.8 ± 1.4; the “Trichrome staining (Kidney fibrosis)” value was found to be 1.98 ± 0.47. In addition, in assay [3] (setting [5]), the “Blood CRP” value is on record as 4534 ± 821, the “Blood IL-6” value turned out to be 125.56 ± 15.75, the “Blood TGF-beta” value amounted to 14.55 ± 2.86 and the “Blood TNF-alpha” value came out at 415 ± 51.7. In addition, the “Urine albumine creatinine ratio (ALB:CRE)” value in assay [3] (day 28 of treatment (week 9), urine pooled per group, 15 mg/kg IV, Captopril 50 mg/kg PO) was determined as 24.40.

On to `O=C(O)c1cc(NC(=O)c2cc(O)cc(C(=O)O)c2O)cc(C(=O)O)c1` [IIa-015a, 5-(3-carboxy-2,5-dihydroxybenzamido)isophthalic acid], for which the IC50 at FGF-2 was determined as 125 µM.

As for `O=C(O)Cc1ccc(NC(=O)c2cc(O)c(C(=O)O)cc2O)cc1` [Ia-032a, 4-(4-(carboxymethyl)phenylaminocarbonyl)-2,5-dihydroxybenzoic acid], the IC50 on FGF-2 is 91 µM; on VEGFR-2 it was no less than 100 µM.

As to `O=C(O)c1cc(O)c(CNCc2cc(O)c(C(=O)O)cc2O)cc1O` [IIIc-056a, Bis(4-carboxy-2,5-dihydroxyphenylmethyl)amine], the half-maximal inhibitory concentration (IC50) at FGF-2 was found to be 35 µM. In the assay on Human neutrophils [1], this compound came in with a Neutrophil adhesion inhibition of 35%. Also, the inhibition at 0.3 µM in the assay with Human neutrophils [2] was 90.1%.

The record behind these values is patent US20230150951A1, “2,5- OR 2,6-DISUBSTITUTED HYDROQUINONE DERIVATIVES WITH AT LEAST ONE CARBOXY, SULFO OR AMIDO GROUP USEFUL AS MEDICAMENTS” (OM PHARMA SA, priority 2020, published 2023).
